Values after ≈ are worked out from the molar mass of the structure shown. Values joined by “and” are separate entries in the source; they are usually repeats but may differ in a detail not shown here. Equal entries are not always repeated. Where two headings read alike, the source gives them in different places.
Columns and labels:
HIV-1IIIB (C8166 cells) = assay: Anti-HIV activity in C8166 cells; format: cell-based; conditions: for TI: TI(CC50/EC50)
Protocol: (§1) The anti-HIV activity was determined by the "Guiding Principles of Anti HIV Drug Unclinical Pharmacodynamics" of SFDA which is tested by technology standard assay according to International Universal Standards and Methods. Where in CC50, EC50 were measured twice and took the average.

HIV-1IIIB(H9 cells) = assay: Anti-HIV activity in H9 cells; format: cell-based; conditions: for TI: TI(CC50/EC50)
Protocol: as §1

Acute toxicity test = format: in vivo; conditions: for safety at a high dose: high dose (10g/kg); for acute toxicity test: in vivo
HIV-1A17 = conditions: HIV-1A17, NVP resistant
Protocol: as §1

HIVKM018 = conditions: HIVKM018, clinical strain
Protocol: as §1

HIV-1TC-1 = conditions: HIV-1TC-1, clinical strain
Protocol: as §1

C8166 cells = assay: Cytotoxicity in C8166 cells (CC50); format: cell-based, human; conditions: measured twice, average
Protocol: as §1

H9 cells = assay: Cytotoxicity in H9 cells (CC50); format: cell-based, human; conditions: measured twice, average
Protocol: as §1

HIV-2 ROD = assay: Anti-HIV-2 activity and cytotoxicity; format: cell-based
HIV-2 CBL-20 = assay: Anti-HIV-2 activity and cytotoxicity; format: cell-based
[1] = Pharmacokinetics: metabolism of 67 to 46, blood concentration and bioavailability; format: in vivo; conditions: after oral gavage of 67 by 100mg/kg
[2] = Human immunodeficiency virus 1, C8166 cells, HIV-1IIIB, measured twice, average, read-out: EC50
[3] = Human immunodeficiency virus 1, H9 cells, HIV-1IIIB, measured twice, average, read-out: EC50
[4] = H9 cells, HIV-1IIIB, measured twice, average

Molecule | EC50 (HIV-1IIIB (C8166 cells); [2]) | EC50 (HIV-1IIIB(H9 cells); [3]) | also measured
Nc1cccc(S(=O)(=O)c2ccc([N+](=O)[O-])cc2)c1C(=O)Nc1ccccc1I [compound 72, 2-amino-N-(2-iodophenyl)-6-((4-nitrophenyl)sulfonyl)benzamide] | 16.2 µg/mL (≈ 30.9 µM) | 193 µg/mL (≈ 368 µM) | –
COc1ccccc1NC(=O)c1c(NS(=O)(=O)c2ccccc2)cccc1S(=O)(=O)c1ccc([N+](=O)[O-])cc1 [compound 61, N-(2-methoxyphenyl)-2-((4-nitrophenyl)sulfonyl)-6-(phenylsulfonamido)benzamide] | 46.9 µg/mL (≈ 82.7 µM) | > 200 µg/mL | –
COc1ccccc1NC(=O)c1c(N)cccc1S(=O)(=O)c1ccc([N+](=O)[O-])cc1 [compound 46, 2-amino-N-(2-methoxyphenyl)-6-((4-nitroph-enyl)sulfonyl)benzamide] | – | – | TI (HIV-1IIIB (C8166 cells); C8166 cells): 2081.59 and 2018.59; TI (HIV-1IIIB(H9 cells); H9 cells): >303.03; safety at a high dose (Acute toxicity test): very safe; acute toxicity test (Acute toxicity test): no abnormal phenomenon occurred; TI(CC50/EC50) (HIV-1A17): >20; TI(CC50/EC50) (HIVKM018): >31.65; TI(CC50/EC50) (HIV-1TC-1): >1818.18
COc1ccccc1NC(=O)c1c(NC(=O)C(N)CCCCN)cccc1Sc1ccc([N+](=O)[O-])cc1.Cl (centres unmarked) [compound 68, 2-(2,6-diaminohexanamido)-N-(2-methoxyphenyl)-6-((4-nitrophenyl)thio)benzamide hydrochloride] | 0.94 µg/mL | 2.38 µg/mL | TI (HIV-1IIIB (C8166 cells); C8166 cells): 122.45; TI (HIV-1IIIB(H9 cells); H9 cells): 37.85
COc1ccccc1NC(=O)c1c(N)cccc1S(=O)(=O)c1ccc(C(=O)O)cc1 [compound 77, 4-((3-amino-2-((2-methoxyphenyl)carbamoyl)phenyl)sulfonyl)benzoic acid] | > 200 µg/mL | > 200 µg/mL | –
COc1ccccc1NC(=O)c1c(NCC(N)=O)cccc1Sc1ccc([N+](=O)[O-])cc1 [compound 82, 2-((2-amino-2-oxoethyl)amino)-N-(2-methoxyphenyl)-6-((4-nitrophenyl)thio)benzamide] | > 200 µg/mL | > 200 µg/mL | –
Nc1cccc(Sc2ccc([N+](=O)[O-])cc2)c1C(=O)Nc1ccccc1I [compound 71, 2-amino-N-(2-iodophenyl)-6-((4-nitrophenyl)thio)benzamide] | 61.4 µg/mL (≈ 125 µM) | > 200 µg/mL | –
COc1ccccc1NC(=O)c1c(NC(=O)C(N)Cc2ccccc2)cccc1S(=O)(=O)c1ccc([N+](=O)[O-])cc1 (centres unmarked) [compound 83, 2-(2-amino-3-phenylpropanamido)-N-(2-methoxyphenyl)-6-((4-nitrophenyl)sulfonyl)benzamide] | 0.45 µg/mL (≈ 0.783 µM) | 0.15 µg/mL (≈ 0.261 µM) | –
COc1ccccc1NC(=O)c1c(NCCN)cccc1Sc1ccc([N+](=O)[O-])cc1 [compound 78, 2-((2-aminoethyl)amino)-N-(2-methoxyphenyl)-6-((4-nitrophenyl)thio)benzamide] | 16.9 µg/mL (≈ 38.6 µM) | 19.9 µg/mL (≈ 45.4 µM) | –
5-(dimethylamino)-N-(2-methoxyphenyl)-2-((4-nitrophenyl)thio)benzamide [compound 28] | – | – | CC50 (C8166 cells): 93.04 µg/mL; EC50 (HIV-1IIIB (C8166 cells); C8166 cells, HIV-1IIIB, measured twice, average): 83.84 µg/mL; CC50 (H9 cells): 77.23 µg/mL; EC50 (HIV-1IIIB(H9 cells); [4]): 98.45 µg/mL
COc1ccccc1NC(=O)c1c(N)cccc1Sc1ccc(C(=O)O)cc1 [compound 76, 4-((3-amino-2-((2-methoxyphenyl)carbamoyl)phenyl)thio)benzoic acid] | 92 µg/mL (≈ 233 µM) | 100 µg/mL (≈ 254 µM) | –
CNc1cccc(S(=O)(=O)c2ccc([N+](=O)[O-])cc2)c1C(=O)Nc1ccccc1OC [compound 59, N-(2-methoxyphenyl)-2-(methylamino)-6-((4-nitrophenyl)sulfonyl)benzamide] | 63.7 µg/mL (≈ 144 µM) | 123 µg/mL (≈ 278 µM) | –
COc1ccccc1NC(=O)c1cc(C(F)(F)F)ccc1Sc1ccc([N+](=O)[O-])cc1 [compound 22, N-(2-methoxyphenyl)-2-((4-nitrophenyl)thio)-5-(trifluoromethyl)benzamide] | > 200 µg/mL | > 200 µg/mL | –
COc1ccccc1NC(=O)c1c(N(C)C)cccc1S(=O)(=O)c1ccc([N+](=O)[O-])cc1 [compound 58, 2-(dimethylamino)-N-(2-methoxyphenyl)-6-((4-nitrophenyl)sulfonyl)benzamide] | 100 µg/mL (≈ 219 µM) | 103 µg/mL (≈ 226 µM) | –
COc1ccccc1NC(=O)c1c(NCP(=O)(OC(C)C)OC(C)C)cccc1Sc1ccc([N+](=O)[O-])cc1 [compound 65, diisopropyl(((2-((2-methoxyphenyl)carbamoyl)-3-((4-nitro-phenyl)thio)phenyl)amino)methyl)phosphonate] | – | – | TI (HIV-1IIIB (C8166 cells); C8166 cells): 0.18; EC50 (HIV-1IIIB (C8166 cells); Human immunodeficiency virus 1, C8166): 106 µg/mL (≈ 184 µM); TI (HIV-1IIIB(H9 cells); H9 cells): 0.13; EC50 (HIV-1IIIB(H9 cells); Human immunodeficiency virus 1, H9): > 200 µg/mL
COc1ccccc1NC(=O)c1c(NC(=O)CN)cccc1S(=O)(=O)c1ccc([N+](=O)[O-])cc1.Cl.Cl [compound 67, 2-(2-aminoacetamido)-N-(2-methoxyphenyl)-6-((4-nitrophenyl)sulfonyl)benzamide hydrochloride hydrochloride] | 0.43 µg/mL | 0.12 µg/mL | TI (HIV-1IIIB (C8166 cells); C8166 cells): 388.04; TI (HIV-1IIIB(H9 cells); H9 cells): 790.58; TI (HIV-2 ROD): 161.78; TI (HIV-2 CBL-20): 87.82; max blood concentration of 46 [1]: 21.662 µg/mL; safety at a high dose (Acute toxicity test): very safe; acute toxicity test (Acute toxicity test): no abnormal phenomenon occurred
COc1ccccc1NC(=O)c1cc(N)ccc1Sc1ccc([N+](=O)[O-])cc1 [compound 24, 5-amino-N-(2-methoxyphenyl)-2-((4-nitrophenyl)thio)benzamide] | 2.59 µg/mL (≈ 6.55 µM) | 2.62 µg/mL (≈ 6.63 µM) | –
COc1ccccc1NC(=O)c1c(N)cccc1Oc1ccc([N+](=O)[O-])cc1 [compound 48, 2-amino-N-(2-methoxyphenyl)-6-(4-nitrop-henoxy)benzamide] | – | – | EC50 (HIV-1IIIB(H9 cells); [4]): 35.87 µg/mL (≈ 94.6 µM)
